Data: ChEMBL document CHEMBL3885861, “Open TG-GATES”

Organism: Rattus norvegicus
Test: Open TG-GATES - Regimen: Single
Assay type: toxicity, organism-based, Sprague-Dawley
Design: regimen Single, gender Male, age 6 weeks
Settings: in vivo, po, route gavage; for APTT / Bas / Eos / Fbg / Hb / Ht / Lym / MCH / MCHC / MCV / Mono / Neu / PT / Plat / RBC / Ret / WBC: tissue Blood; for KIDNEY_L / KIDNEY_R / KIDNEY_TOTAL: tissue Kidney; for LIVER: tissue Liver; for A/G / ALP / ALT / AST / BUN / CRE / Ca / Cl / DBIL / GLC / IP / K / LDH / Na / PL / RALB / TBIL / TC / TG / TP / gamma-GTP: tissue Plasma
[1] = 0 mg/kg, 3 h, dose level Control
[2] = 0 mg/kg, 6 h, dose level Control
[3] = 0 mg/kg, 9 h, dose level Control
[4] = 0 mg/kg, 24 h, dose level Control

## CC1=C(CC(=O)O)c2cc(F)ccc2/C1=C\c1ccc([S+](C)[O-])cc1 (centres undefined)
[1]
  TERMINAL_BW: 203.6 g
  APTT: 20.8 s
  Bas: 0.2%
  Eos: 0.8%
  Fbg: 275 mg/dL
  Hb: 13.9 g/dL
  Ht: 42%
  Lym: 77.4%
  MCH: 21.5 pg
  MCHC: 33.1%
  MCV: 65.1 fL
  Mono: 2.8%
  Neu: 18.6%
  PT: 14.2 s
  Plat: 116.8 x10_4/uL
  RBC: 645.6 x10_4/ul
  Ret: 7.9%
  WBC: 80.3 x10_2/uL
  KIDNEY_L: 0.8 g
  KIDNEY_R: 0.9 g
  KIDNEY_TOTAL: 1.7 g
  LIVER: 9.3 g
  A/G: 0.9
  ALP: 1495.6 IU/L
  ALT: 41.6 IU/L
  AST: 79.8 IU/L
  BUN: 10.4 mg/dL
  CRE: 0.2 mg/dL
  Ca: 10.9 mg/dL
  Cl: 105.4 meq/L
  DBIL: 0.01 mg/dL
  GLC: 168 mg/dL
  IP: 8.7 mg/dL
  K: 3.9 meq/L
  LDH: 79.6 IU/L
  Na: 142.4 meq/L
  PL: 150.6 mg/dL
  RALB: 2.6 g/dL
  TBIL: 0.024 mg/dL
  TC: 80.8 mg/dL
  TG: 65.4 mg/dL
  TP: 5.4 g/dL
  gamma-GTP: 1 IU/L
[2]
  TERMINAL_BW: 197.1 g
  APTT: 17.8 s
  Bas: 0%
  Eos: 1%
  Fbg: 281.8 mg/dL
  Hb: 13.8 g/dL
  Ht: 42.2%
  Lym: 78.6%
  MCH: 20.7 pg
  MCHC: 32.8%
  MCV: 62.9 fL
  Mono: 2.8%
  Neu: 17%
  PT: 14.2 s
  Plat: 121.9 x10_4/uL
  RBC: 670.4 x10_4/ul
  Ret: 7.7%
  WBC: 78.4 x10_2/uL
  KIDNEY_L: 0.8 g
  KIDNEY_R: 0.9 g
  KIDNEY_TOTAL: 1.7 g
  LIVER: 8 g
  A/G: 0.9
  ALP: 1387.6 IU/L
  ALT: 38.2 IU/L
  AST: 72 IU/L
  BUN: 7.4 mg/dL
  CRE: 0.2 mg/dL
  Ca: 10.6 mg/dL
  Cl: 106.4 meq/L
  DBIL: 0.002 mg/dL
  GLC: 171.8 mg/dL
  IP: 9.5 mg/dL
  K: 4.1 meq/L
  LDH: 71.6 IU/L
  Na: 142 meq/L
  PL: 142 mg/dL
  RALB: 2.5 g/dL
  TBIL: 0.03 mg/dL
  TC: 83.6 mg/dL
  TG: 37.4 mg/dL
  TP: 5.2 g/dL
  gamma-GTP: 1.6 IU/L
[3]
  TERMINAL_BW: 198.3 g
  APTT: 16.6 s
  Bas: 0%
  Eos: 0.8%
  Fbg: 308.8 mg/dL
  Hb: 13.9 g/dL
  Ht: 42.5%
  Lym: 81.6%
  MCH: 21.1 pg
  MCHC: 32.7%
  MCV: 64.8 fL
  Mono: 2%
  Neu: 15%
  PT: 13.8 s
  Plat: 120.2 x10_4/uL
  RBC: 655.8 x10_4/ul
  Ret: 7.7%
  WBC: 58.8 x10_2/uL
  KIDNEY_L: 0.9 g
  KIDNEY_R: 0.9 g
  KIDNEY_TOTAL: 1.9 g
  LIVER: 7.9 g
  A/G: 1
  ALP: 1678 IU/L
  ALT: 36.8 IU/L
  AST: 70 IU/L
  BUN: 10 mg/dL
  CRE: 0.2 mg/dL
  Ca: 10.6 mg/dL
  Cl: 107.8 meq/L
  DBIL: 0.004 mg/dL
  GLC: 182 mg/dL
  IP: 10.1 mg/dL
  K: 4.3 meq/L
  LDH: 65.6 IU/L
  Na: 142.4 meq/L
  PL: 142 mg/dL
  RALB: 2.6 g/dL
  TBIL: 0.03 mg/dL
  TC: 83 mg/dL
  TG: 47.6 mg/dL
  TP: 5.3 g/dL
  gamma-GTP: 1 IU/L
[4]
  TERMINAL_BW: 215.3 g
  APTT: 16 s
  Bas: 0%
  Eos: 1%
  Fbg: 292.8 mg/dL
  Hb: 13.7 g/dL
  Ht: 42.7%
  Lym: 77.6%
  MCH: 21 pg
  MCHC: 32.2%
  MCV: 65.2 fL
  Mono: 2.8%
  Neu: 18.2%
  PT: 13.7 s
  Plat: 140.1 x10_4/uL
  RBC: 654.6 x10_4/ul
  Ret: 7.3%
  WBC: 87.2 x10_2/uL
  KIDNEY_L: 0.9 g
  KIDNEY_R: 0.9 g
  KIDNEY_TOTAL: 1.8 g
  LIVER: 9.8 g
  A/G: 0.9
  ALP: 1542 IU/L
  ALT: 49 IU/L
  AST: 74 IU/L
  BUN: 13.2 mg/dL
  CRE: 0.2 mg/dL
  Ca: 11 mg/dL
  Cl: 106.4 meq/L
  DBIL: 0.01 mg/dL
  GLC: 182.6 mg/dL
  IP: 7.3 mg/dL
  K: 4.1 meq/L
  LDH: 75 IU/L
  Na: 142.2 meq/L
  PL: 153 mg/dL
  RALB: 2.7 g/dL
  TBIL: 0.02 mg/dL
  TC: 83.2 mg/dL
  TG: 82.2 mg/dL
  TP: 5.5 g/dL
  gamma-GTP: 1 IU/L
15 mg/kg, 3 h, dose level Low
  TERMINAL_BW: 200.6 g
  APTT: 22.7 s
  Bas: 0%
  Eos: 1%
  Fbg: 290.6 mg/dL
  Hb: 13.4 g/dL
  Ht: 40.8%
  Lym: 74.8%
  MCH: 21.4 pg
  MCHC: 32.8%
  MCV: 65.3 fL
  Mono: 3%
  Neu: 21%
  PT: 14 s
  Plat: 130.1 x10_4/uL
  RBC: 625.6 x10_4/ul
  Ret: 8.8%
  WBC: 78.5 x10_2/uL
  KIDNEY_L: 1 g
  KIDNEY_R: 0.9 g
  KIDNEY_TOTAL: 1.9 g
  LIVER: 9.3 g
  A/G: 0.9
  ALP: 1384.2 IU/L
  ALT: 40.4 IU/L
  AST: 69.6 IU/L
  BUN: 11 mg/dL
  CRE: 0.2 mg/dL
  Ca: 10.9 mg/dL
  Cl: 105 meq/L
  DBIL: 0.01 mg/dL
  GLC: 173.2 mg/dL
  IP: 8.4 mg/dL
  K: 4 meq/L
  LDH: 66.8 IU/L
  Na: 140.8 meq/L
  PL: 140.6 mg/dL
  RALB: 2.6 g/dL
  TBIL: 0.036 mg/dL
  TC: 71.2 mg/dL
  TG: 65.6 mg/dL
  TP: 5.3 g/dL
  gamma-GTP: 1 IU/L
15 mg/kg, 6 h, dose level Low
  TERMINAL_BW: 201 g
  APTT: 16.5 s
  Bas: 0%
  Eos: 1%
  Fbg: 279.2 mg/dL
  Hb: 13.5 g/dL
  Ht: 41.4%
  Lym: 74%
  MCH: 20.8 pg
  MCHC: 32.6%
  MCV: 63.7 fL
  Mono: 2.4%
  Neu: 22.4%
  PT: 14.1 s
  Plat: 115.6 x10_4/uL
  RBC: 650.4 x10_4/ul
  Ret: 8.1%
  WBC: 70.2 x10_2/uL
  KIDNEY_L: 0.9 g
  KIDNEY_R: 0.9 g
  KIDNEY_TOTAL: 1.7 g
  LIVER: 8.2 g
  A/G: 1
  ALP: 1365.6 IU/L
  ALT: 41.4 IU/L
  AST: 72.4 IU/L
  BUN: 9 mg/dL
  CRE: 0.2 mg/dL
  Ca: 10.8 mg/dL
  Cl: 106.8 meq/L
  DBIL: 0.006 mg/dL
  GLC: 172.8 mg/dL
  IP: 9.3 mg/dL
  K: 4.3 meq/L
  LDH: 73.2 IU/L
  Na: 141.4 meq/L
  PL: 137.6 mg/dL
  RALB: 2.5 g/dL
  TBIL: 0.03 mg/dL
  TC: 78.6 mg/dL
  TG: 40 mg/dL
  TP: 5.2 g/dL
  gamma-GTP: 1.4 IU/L
15 mg/kg, 9 h, dose level Low
  TERMINAL_BW: 198.6 g
  APTT: 16.9 s
  Bas: 0%
  Eos: 0.8%
  Fbg: 285.6 mg/dL
  Hb: 13.2 g/dL
  Ht: 40.7%
  Lym: 81.4%
  MCH: 21 pg
  MCHC: 32.4%
  MCV: 64.8 fL
  Mono: 2%
  Neu: 15.2%
  PT: 14.2 s
  Plat: 128.1 x10_4/uL
  RBC: 627.6 x10_4/ul
  Ret: 8.8%
  WBC: 72.2 x10_2/uL
  KIDNEY_L: 0.9 g
  KIDNEY_R: 0.9 g
  KIDNEY_TOTAL: 1.8 g
  LIVER: 7.7 g
  A/G: 0.9
  ALP: 1238.2 IU/L
  ALT: 43.4 IU/L
  AST: 74.4 IU/L
  BUN: 10.6 mg/dL
  CRE: 0.2 mg/dL
  Ca: 10.7 mg/dL
  Cl: 108 meq/L
  DBIL: 0.008 mg/dL
  GLC: 173.6 mg/dL
  IP: 9.9 mg/dL
  K: 4.1 meq/L
  LDH: 65.2 IU/L
  Na: 142.2 meq/L
  PL: 135.4 mg/dL
  RALB: 2.5 g/dL
  TBIL: 0.042 mg/dL
  TC: 76.2 mg/dL
  TG: 37.6 mg/dL
  TP: 5.2 g/dL
  gamma-GTP: 1 IU/L
15 mg/kg, 24 h, dose level Low
  TERMINAL_BW: 215 g
  APTT: 22.5 s
  Bas: 0%
  Eos: 1%
  Fbg: 310.4 mg/dL
  Hb: 14 g/dL
  Ht: 43.7%
  Lym: 77.4%
  MCH: 21 pg
  MCHC: 32%
  MCV: 65.8 fL
  Mono: 2.2%
  Neu: 19%
  PT: 13.3 s
  Plat: 125.4 x10_4/uL
  RBC: 665.4 x10_4/ul
  Ret: 7.7%
  WBC: 81.5 x10_2/uL
  KIDNEY_L: 0.9 g
  KIDNEY_R: 0.9 g
  KIDNEY_TOTAL: 1.8 g
  LIVER: 10.4 g
  A/G: 0.9
  ALP: 1898.6 IU/L
  ALT: 48 IU/L
  AST: 70.2 IU/L
  BUN: 15.4 mg/dL
  CRE: 0.2 mg/dL
  Ca: 11.2 mg/dL
  Cl: 104.6 meq/L
  DBIL: 0.01 mg/dL
  GLC: 189.6 mg/dL
  IP: 7.4 mg/dL
  K: 4.2 meq/L
  LDH: 90.8 IU/L
  Na: 141 meq/L
  PL: 176.4 mg/dL
  RALB: 2.7 g/dL
  TBIL: 0.014 mg/dL
  TC: 95 mg/dL
  TG: 134.8 mg/dL
  TP: 5.7 g/dL
  gamma-GTP: 1 IU/L
